Measured values reported in patent US6689753B1, “β sheet breaker peptide analogs that inhibit β pleated sheet formation in amyloid β-peptide” (Axonyx, Inc., priority 1999, dated 2004).
Non-standard residues stand in square brackets, D forms with d. Residues, ends and D or L forms follow the SMILES beside them.

Columns and labels:
Aβ1-40 = Aβ1-40 (Homo sapiens, UniProt P05067); assay: In vitro amyloid formation assay, thioflavine T fluorescence; format: biochemical; details: Aβ incubated with peptide, ThT fluorescence, FIG. 5a
[1] = In vitro assay of peptide stability in fresh human plasma; format: in vitro ADME
Method: One of the major drawbacks for the use of peptides as drugs is their rapid proteolytic degradation in biological fluids and tissues. In in vitro experiments, iAβ5, (Seq LPFFD- also depicted as Leu Pro Phe Phe Asp herein) degraded very quickly in vitro after incubation with fresh human plasma. […] Since it was not possible to identify any metabolic fragments as a result of the proteolytic digestion, it seems likely that the degradation is mainly done by unspecific exopeptidases. This conclusion is supported by the finding that protection of amino- and carboxy-terminus of the peptide by acetylation and amidation, respectively, (to form Ac-iAβ5-Am—also depicted as Ac-Leu Pro Phe Phe Asp-Am herein) dramatically increases the stability of the peptide in vitro.
In vitro assays of peptide stability. Peptides were prepared as a 1 μg/μl solution in water. 20 μl of the peptide solution was diluted in 80 μl of fresh human plasma. The solution was incubated at 37° C. for different time periods and the reaction was stopped by adding a complete cocktail of protease inhibitors. The bulk of the plasma proteins (none of the peptide) were precipitated in cold methanol (mix/MeOH, 4/5, v/v) for one hour at −20° C. […] The peak area corresponding to the intact peptide was measured and compared with an equivalent sample incubated without plasma.

Aβ1-42 amyloid deposits = Aβ1-42 amyloid deposits (Homo sapiens, UniProt P05067); details: cited from earlier work
Aβ = details: prior art; cited from earlier work
[2] = tested on: neuronal death induced by oligomeric Aβ; details: cell culture, prior art; cited from earlier work
[3] = In vitro metabolism in human liver microsomes; format: in vitro ADME; details: one hour of incubation at 37°, read-out: peptide remained intact
[4] = In vitro metabolism in rat liver microsomes; format: in vitro ADME; details: one hour of incubation at 37°, read-out: peptide remained intact
[5] = Peptide stability in rat plasma after i.v. bolus injection (radio-iodinated peptide, TCA precipitation, paper chromatography); format: in vivo; details: 15 minutes after i.v. injection
Method: d) Chirality changes. Replacement of the natural L-residue by the D-enantiomers dramatically increases resistance to proteolytic degradation. […] Indeed, approximately 90% of iAβ1 was degraded within minutes after intravenous injection. […] For detection, the peptide was radio-iodinated using standard procedures. Peptide stability was evaluated after i.v bolus injection in rats by precipitation with trichloroacetic acid. Quantitation of the intact peptide was also done by paper chromatography. […] In addition to the latter, D-residue are used after each proline amino acid, since it has been reported that a frequent endopeptidase cleavage site is after this residue by an enzyme known as prolylendopeptidase.

PrP = PrP (Homo sapiens, UniProt P04156); details: cited from earlier work

Aβ1-40, sequence (P05067 672-711): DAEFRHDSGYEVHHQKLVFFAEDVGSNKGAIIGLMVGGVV
Aβ1-42 amyloid deposits, sequence (P05067 672-713): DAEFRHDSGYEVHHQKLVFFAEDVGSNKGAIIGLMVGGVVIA

Question: With “GYLTVAAVFRG [CP2, unrelated control peptide]” as the compound, how does the “activity in inhibiting amyloid formation (fibrillogenesis)” value (Aβ1-40) read?
Answer: no effect on fibrillogenesis or slightly increased amyloid formation

Question: With “ISEVKMDAEF [CP10, unrelated control peptide]” as the compound, how does the “activity in inhibiting amyloid formation (fibrillogenesis)” value (Aβ1-40) read?
Answer: no effect on fibrillogenesis or slightly increased amyloid formation

Question: With `CC(C)C[C@H](N)C(=O)N1CCC[C@H]1C(=O)N[C@@H](Cc1ccccc1)C(=O)N[C@@H](Cc1ccccc1)C(=O)N[C@@H](CC(=O)O)C(=O)O` [iAβ5, Leu Pro Phe Phe Asp] (H-LPFFD-OH) as the compound, how does the half-life at 0.2 μg/μl ([1]; fresh human plasma, 37° C., FIG. 4a, read-out: time in which fifty percent of the peptide disappeared in plasma) read?
Answer: ~5 min

Question: What about the “cerebral Aβ accumulation and deposition of fibrillar amyloid-like lesions” value (Aβ1-42 amyloid deposits; co-injection with Aβ1-42, rat brain, prior art) of the same compound?
Answer: decreased cerebral Aβ accumulation and completely blocked the deposition of fibrillar amyloid-like lesions

Question: And the “inhibition of amyloid plaque formation” value (Aβ1-42 amyloid deposits; co-injection with Aβ1-42, rat)?
Answer: 50%

Question: What about the “dissolution of preformed deposits” value (Aβ1-42 amyloid deposits; i.c. injection in animals already containing amyloid plaques) of the same compound?
Answer: 67%

Question: What about the “inhibition of amyloid formation and dissolution of preformed fibrils in vitro” value (Aβ) of the same compound?
Answer: inhibit peptide conformational changes that result in amyloid formation and also dissolved preformed fibrils

Question: And the “prevention of neuronal death” value [2]?
Answer: capable of preventing the neuronal death

Question: With RDLPFYPVPID [iAβ1] as the compound, how does the “inhibition of amyloid formation and dissolution of preformed fibrils in vitro” value (Aβ) read?
Answer: inhibit peptide conformational changes that result in amyloid formation and also dissolved preformed fibrils

Question: With “Aβ18-21: short Aβ fragment (VFFA; Amyloid-beta protein 42; UniProt P05067 689-692, looked up, fragment)” as the compound, how does the “activity in inhibiting amyloid formation (fibrillogenesis)” value (Aβ1-40) read?
Answer: no effect on fibrillogenesis or slightly increased amyloid formation

Question: Which “activity in inhibiting amyloid formation (fibrillogenesis)” value (Aβ1-40) does the source give for “VHVSEEGTEPA [CP1, unrelated control peptide]” here?
Answer: no effect on fibrillogenesis or slightly increased amyloid formation

Question: Which “period the peptide remained stable in human plasma” value ([1]; human plasma, FIG. 4b) does the source give for `CC(=O)N[C@@H](CC(C)C)C(=O)N1CCC[C@H]1C(=O)N[C@@H](Cc1ccccc1)C(=O)N[C@@H](Cc1ccccc1)C(=O)N[C@@H](CC(=O)O)C(N)=O` [Ac-iAβ5-Am, Ac-Leu Pro Phe Phe Asp-Am] (Ac-LPFFD-NH2) here?
Answer: more than 24 hours

Question: What about the remaining at 1 h [3] of the same compound?
Answer: 81.5%

Question: And the remaining at 1 h [4]?
Answer: 76.3%

Question: Which “degradation in the plasma after injection” value [5] does the source give for `CC[C@@H](C)[C@@H](NC(=O)[C@H]1CCCN1C(=O)[C@H](NC(=O)[C@H]1CCCN1C(=O)[C@@H](Cc1ccc(O)cc1)NC(=O)[C@@H](Cc1ccccc1)NC(=O)[C@H]1CCCN1C(=O)[C@@H](CC(C)C)NC(=O)[C@@H](CC(=O)O)NC(=O)[C@H](N)CCCNC(=N)N)C(C)C)C(=O)N[C@H](CC(=O)O)C(=O)O` (H-[dR][dD][dL][dP][dF][dY][dP][dV][dP][dI][dD]-OH; N-terminus and C-terminus assumed) here?
Answer: virtually no degradation

Question: With “Asp Ala Pro Ala Ala Pro Ala Gly Pro ala Val Pro Val [iPrP13]” as the compound, how does the “inhibitory activity on PrP conformational change among a set of β-sheet breaker peptides” value (PrP) read?
Answer: showed the greatest activity
